This assay concerns Plasmodium berghei. The experiment in a line: Luciferase/luciferin-expressing antifolate-resistant parasites were used to infect a culture of HepG2 cells that were pre-incubated with compounds. Infected hepatocytes emit light due to the luciferase reaction. Assay results are presented as the percent inhibition of light emission compared to control. […]. The class given is functional. Particulars: sporozoite; for IC90: read-out: LUCIFERASE INFECTION ASSAY - IC90.

Setting [1] is: read-out: LUCIFERASE INFECTION ASSAY - IC50.

Our source for the IC50 and IC90 values is ChEMBL document CHEMBL4483862, “Open-source discovery of chemical leads for next-generation chemoprotective antimalarials” (2018).

The structures appear in SMILES notation. Where only a bound is given, the exact number is not on record here.

Regarding `COc1ccc(-c2csc3ncnc(NCc4cccnc4)c23)cc1`, the concentration for an effect of 90% (IC90) is > 10 µM. Moreover, the IC50 (HEPG2TOX_HILL_SLOPE 6.97, HEPG2TOX_R_SQUARED 0.88, PBLUC_HILL_SLOPE 2.74, PBLUC_R_SQUARED 0.795, read-out: LUCIFERASE INFECTION ASSAY - IC50) is 6.71 µM.

For the compound `CCOC(=O)c1sc(NC(=O)c2ccc([N+](=O)[O-])s2)nc1C`, the IC90 came to 3.85 µM. Moreover, under “PBLUC_HILL_SLOPE 17.3, PBLUC_R_SQUARED 0.599, read-out: LUCIFERASE INFECTION ASSAY - IC50”, the IC50 is 3.39 µM.

As to `CSc1c(-c2ccc(Cl)cc2)[nH]c2ccccc12`, the IC90 was > 12.1 µM. Moreover, the IC50 (PBLUC_HILL_SLOPE 3.51, PBLUC_R_SQUARED 0.189, read-out: LUCIFERASE INFECTION ASSAY - IC50) was found to be 11.1 µM.

For the compound `CCOC(=O)c1c(NC(=O)CSc2ncnc3scc(-c4ccc(OC)cc4)c23)sc2c1CCCC2`, the IC90 was > 10 µM. Besides, the IC50 (HEPG2TOX_HILL_SLOPE 1.83, HEPG2TOX_R_SQUARED 0.223, read-out: LUCIFERASE INFECTION ASSAY - IC50) is > 10 µM.

`O=C(Cc1ccsc1)NNC(=O)c1cccc(S(=O)(=O)Nc2cccc(C(F)(F)F)c2)c1`: the IC90 was > 10 µM. Besides, the IC50 under setting [1] was > 10 µM.

`Cn1ncc2c(=O)n(Cc3sc4ccccc4c3Cl)cnc21`: the IC90 was > 10 µM. Moreover, the IC50 under setting [1] is > 10 µM.

Consider `CCOc1ccc(OCc2ccc(C(=O)NNC3CC(=O)N(CCOC)C3=O)cc2)cc1` (stereo not drawn), for which the 90% effect concentration (IC90) was > 10 µM. The IC50 under setting [1] is > 10 µM.

Take `CCOC(=O)Nc1ccc2c(Cn3cnc4sc5c(c4c3=O)CCC5)cc(=O)oc2c1`: the 90% effect concentration (IC90) is > 10 µM. Moreover, the half-inhibitory concentration (IC50) (FFLUC_HILL_SLOPE 14, FFLUC_R_SQUARED 0.282, read-out: LUCIFERASE INFECTION ASSAY - IC50) was > 10 µM.

Take `CS(=O)(=O)c1ccc(C(F)(F)F)cc1[N+](=O)[O-]`: the IC90 is > 12.3 µM. The IC50 under setting [1] was > 12.3 µM.

As to `O=C(c1cccs1)N1CCc2[nH]nc(-c3ccc(Cl)cc3)c2C1`, the IC90 is > 9.6 µM. Moreover, under setting [1], the IC50 was > 9.6 µM.

Turning to `c1ccc(-c2csc3nc(CN4CCCCC4)nc(Sc4nnc(-c5cccnc5)o4)c23)cc1`, the IC90 came out at 3.67 µM. Also, where the note is “HEPG2TOX_HILL_SLOPE 3.21, 5.75, HEPG2TOX_R_SQUARED 0.957, 0.718, PBLUC_HILL_SLOPE 33.6, 11.3, PBLUC_R_SQUARED 0.628, 0.512, read-out: LUCIFERASE INFECTION ASSAY - IC50”, the IC50 was determined as 3.23 µM.

In the case of `O=C(Nc1ccc(F)cc1)c1nnsc1S(=O)(=O)c1ccc(Cl)cc1`, the IC90 is > 8.29 µM. The IC50 under setting [1] is 6.54 µM.

For `C=CCn1c2ccccc2n2nc(C)c(C(=O)/C=C/c3ccccn3)c12`, the IC90 turned out to be 4.04 µM. In addition, under “PBLUC_HILL_SLOPE 13.1, PBLUC_R_SQUARED 0.157, read-out: LUCIFERASE INFECTION ASSAY - IC50”, the IC50 was determined as 3.42 µM.

On to `O=C(NC(=O)N1CCc2c([nH]c3ccccc23)C1C(F)(F)F)c1ccccc1` (stereo not drawn), for which the IC90 is > 8.52 µM. Also, under setting [1], the IC50 was > 8.52 µM.

In the case of `NC(Cc1ccccc1)c1csc(Nc2ccc(-c3ccccc3)nn2)n1` (stereo not drawn), the IC90 was 5.82 µM. For the same compound, where the note is “PBLUC_HILL_SLOPE 170, PBLUC_R_SQUARED 0.669, read-out: LUCIFERASE INFECTION ASSAY - IC50”, the IC50 was 5.74 µM.

With `CC(C)n1ncc2cc(C(=O)Nc3ccc4oc5ccccc5c4c3)cnc21`, the IC90 amounted to 6.74 µM. Also, the IC50 (HEPG2TOX_HILL_SLOPE 0.893, HEPG2TOX_R_SQUARED 0.928, PBLUC_HILL_SLOPE 1.69, PBLUC_R_SQUARED 0.728, read-out: LUCIFERASE INFECTION ASSAY - IC50) turned out to be 1.84 µM.

For `CCCCN1C(=O)/C(=C\c2ccc(O)c(OCC)c2)NC1=S`, the IC90 is > 10 µM. Further, under “PBLUC_HILL_SLOPE 2.35, PBLUC_R_SQUARED 0.305, read-out: LUCIFERASE INFECTION ASSAY - IC50”, the IC50 was determined as 6.33 µM.

As for `Clc1ccc(CN=C(Nc2ccccc2)NC2CCCCC2)cc1`, the IC90 was 9.45 µM. For the setting “PBLUC_HILL_SLOPE 18.9, PBLUC_R_SQUARED 0.472, read-out: LUCIFERASE INFECTION ASSAY - IC50”, the half-maximal inhibitory concentration (IC50) turned out to be 8.42 µM.

Take `CCCCOc1ccc(/C=N/Nc2ccc([N+](=O)[O-])cc2)cc1`: the IC90 was > 10 µM. The IC50 under setting [1] is > 10 µM.

Turning to `N=C1NC(=O)C(C2(O)C(=O)N(Cc3ccccc3)c3ccc(Cl)cc32)S1` (stereo not drawn), the concentration for an effect of 90% (IC90) is > 8.51 µM. Besides, where the note is “PBLUC_HILL_SLOPE 0.13, PBLUC_R_SQUARED 0.0166, read-out: LUCIFERASE INFECTION ASSAY - IC50”, the IC50 was > 8.51 µM.

As to `FC(F)(F)Oc1cccc(-c2cnc3cnc(-c4cccnc4)cn23)c1`, the IC90 is > 9.26 µM. Moreover, the 50% inhibitory concentration (IC50) (PBLUC_HILL_SLOPE 14.8, PBLUC_R_SQUARED 0.205, read-out: LUCIFERASE INFECTION ASSAY - IC50) was 8.62 µM.

`C=CCn1c(SCc2c(C)noc2C)nc2scc(C3CC3)c2c1=O`: the IC90 is 0.0519 µM. Moreover, for the setting “HEPG2TOX_HILL_SLOPE 0.626, HEPG2TOX_R_SQUARED 0.778, PBLUC_HILL_SLOPE 13, PBLUC_R_SQUARED 0.397, read-out: LUCIFERASE INFECTION ASSAY - IC50”, the IC50 stood at 0.0439 µM.

Turning to `O=C(Nc1ccc(-c2csc(N3CCOCC3)n2)cc1)c1cccc(F)c1`, the 90% effect concentration (IC90) was > 10 µM. Further, the IC50 under setting [1] was > 10 µM.

As to `COc1ccc(CN2C(=O)N(C)C3(CCN(Cc4ccc(N(C)c5ccccc5)cc4)CC3)C2=O)cc1`, the IC90 is 3.8 µM. Moreover, under “HEPG2TOX_HILL_SLOPE 3.68, HEPG2TOX_R_SQUARED 0.977, PBLUC_HILL_SLOPE 4.63, PBLUC_R_SQUARED 0.726, read-out: LUCIFERASE INFECTION ASSAY - IC50”, the IC50 was 2.36 µM.

As to `COc1cc([N+](=O)[O-])ccc1NC(=O)COC(=O)c1c(C)nn(Cc2ccc(Cl)cc2Cl)c1Cl`, the IC90 is > 10 µM. For the setting “FFLUC_HILL_SLOPE 15, FFLUC_R_SQUARED 0.28, read-out: LUCIFERASE INFECTION ASSAY - IC50”, the IC50 was > 10 µM.

With `Oc1ccccc1-c1cc(-c2ccccc2)nn1Cc1ccccc1`, the IC90 came to 3.93 µM. Also, for the setting “PBLUC_HILL_SLOPE 14.4, PBLUC_R_SQUARED 0.373, read-out: LUCIFERASE INFECTION ASSAY - IC50”, the IC50 was 3.37 µM.

Regarding `Cc1nc2cc(NC(=O)CCCSc3nc4ccccc4[nH]3)ccc2o1`, the IC90 was > 10 µM. In addition, the IC50 (PBLUC_HILL_SLOPE 4.06, PBLUC_R_SQUARED 0.0694, read-out: LUCIFERASE INFECTION ASSAY - IC50) was 9.96 µM.

Regarding `Brc1ccc(/C=N/c2ccccc2N2CCOCC2)cc1`, the 90% effect concentration (IC90) is > 10 µM. Besides, under setting [1], the IC50 is > 10 µM.

As to `O=C(c1cccs1)N1[C@@H]2CC[C@@H](C2)[C@H]1c1nc2cccc(OCc3ccc(F)cc3)c2[nH]1`, the IC90 was > 10 µM. Moreover, the IC50 (FFLUC_HILL_SLOPE 9.4, FFLUC_R_SQUARED 0.0879, PBLUC_HILL_SLOPE 2.58, PBLUC_R_SQUARED 0.515, read-out: LUCIFERASE INFECTION ASSAY - IC50) came out at 7.57 µM.

As for `Cc1[nH]c2ccccc2c1-c1nc(Nc2ccc3c(c2)OCCO3)sc1C`, the IC90 is > 10 µM. The IC50 under setting [1] is > 10 µM.

In the case of `CCNc1ccc(S(=O)(=O)C(F)(F)F)cc1NC(=O)/C=C/c1ccc(OC)c(OC)c1`, the IC90 is > 10 µM. In addition, under “HEPG2TOX_HILL_SLOPE 1.67, 1.94, HEPG2TOX_R_SQUARED 0.906, 0.973, PBLUC_HILL_SLOPE 2.77, PBLUC_R_SQUARED 0.318, read-out: LUCIFERASE INFECTION ASSAY - IC50”, the IC50 worked out at 7.07 µM.

Regarding `O=C(CSc1nnc(-c2ccccc2)o1)Nc1ncc(Cl)cc1Cl`, the IC90 turned out to be 1.2 µM. Further, for the setting “HEPG2TOX_HILL_SLOPE 0.667, HEPG2TOX_R_SQUARED 0.783, PBLUC_HILL_SLOPE 16.1, PBLUC_R_SQUARED 0.672, read-out: LUCIFERASE INFECTION ASSAY - IC50”, the IC50 amounted to 1.05 µM.

In the case of `Cc1cc(C)cc(NC(=O)c2cc(C(C)(C)C)n(-c3ccccc3)c2C)c1`, the IC90 came to 5.09 µM. Also, the IC50 (PBLUC_HILL_SLOPE 2.05, PBLUC_R_SQUARED 0.76, read-out: LUCIFERASE INFECTION ASSAY - IC50) came out at 1.74 µM.

On to `CC1CCc2c(sc3c2C(=O)NC(/C(Br)=C/c2ccccc2)N3)C1` (stereo not drawn), for which the IC90 was determined as 3.94 µM. Besides, under “FFLUC_HILL_SLOPE 0.906, FFLUC_R_SQUARED 0.617, HEPG2TOX_HILL_SLOPE 7.13, HEPG2TOX_R_SQUARED 0.573, PBLUC_HILL_SLOPE 13.5, PBLUC_R_SQUARED 0.659, read-out: LUCIFERASE INFECTION ASSAY - IC50”, the IC50 was determined as 3.35 µM.

Consider `CCOC(=O)c1c(C)oc2nc(CN(C)Cc3ccc(OCC)cc3)nc(N)c12`, for which the IC90 turned out to be 8.75 µM. The IC50 (PBLUC_HILL_SLOPE 4.1, PBLUC_R_SQUARED 0.674, read-out: LUCIFERASE INFECTION ASSAY - IC50) turned out to be 5.12 µM.

Consider `OC(c1cn2cc(-c3ccccc3)nc2s1)(C(F)(F)F)C(F)(F)F`, for which the IC90 stood at 1.73 µM. Besides, under “PBLUC_HILL_SLOPE 1.37, PBLUC_R_SQUARED 0.781, read-out: LUCIFERASE INFECTION ASSAY - IC50”, the IC50 stood at 0.348 µM.

As to `O=C(NC1CC1)c1ccc(CN(C2CC2)S(=O)(=O)c2cccs2)cc1`, the IC90 was > 10 µM. The IC50 (PBLUC_HILL_SLOPE 4.12, PBLUC_R_SQUARED 0.383, read-out: LUCIFERASE INFECTION ASSAY - IC50) was found to be 7.92 µM.

Regarding `COc1ccc(Nc2nc(NCCO)c3ccccc3n2)cc1`, the 90% effect concentration (IC90) was > 10 µM. In addition, under setting [1], the IC50 was > 10 µM.

On to `COCC(C)NS(=O)(=O)c1c(C(C)C)cc(C(C)C)cc1C(C)C` (stereo not drawn), for which the IC90 is > 9.28 µM. Under setting [1], the IC50 was > 9.28 µM.

Broadly, the IC50 is the concentration at which inhibition is half-maximal. As a reminder, the IC90 is the concentration needed for an effect of 90%.
